Source: PMC9790248, “Effects of CYP3A Inhibition, CYP3A Induction, and Gastric Acid Reduction on the Pharmacokinetics of Ripretinib, a Switch Control KIT Tyrosine Kinase Inhibitor” (Clinical Pharmacology in Drug Development, 2022)
Like-named read-outs stand apart in the source and are kept apart here.

Key:
[1] = Pantoprazole (proton pump inhibitor) DDI study, plasma pharmacokinetics; assay type: in vivo, human; conditions: for AUC(0-t) / AUC(0-inf) / Cmax / half-life / Tmax: both sexes, human, plasma; for AUC(0-t) / AUC(0-inf) / Cmax / half-life: po; for AUC(0-t) / AUC(0-inf) / Cmax / half-life / Tmax / CL/F, arithmetic mean (SD) / CL/F, geometric mean (CV%): fasting; for Tmax: read-out: tmax, median (min, max); for Time postdose that mean plasma concentration remained above the LLOQ: LLOQ 2.00 ng/mL
Description: All studies were phase 1, fixed‐sequence, open‐label studies in healthy volunteers. One study consisted of two separate cohorts examining DDIs between ripretinib and itraconazole or pantoprazole, respectively; the rifampin study was conducted separately. Studies and cohorts were enrolled independently. Eligible participants were healthy male or female adults between 18 and 55 years of age with a body mass index (BMI) of ≥18.5 and ≤30 kg/m^2. Good health was confirmed by a physician and based on medical evaluation with no significant findings, including medical history, physical examination, laboratory tests, and 12‐lead electrocardiogram (ECG) at screening and day −1. Participants were required to abstain from alcohol, marijuana, grapefruit, Seville oranges, tangelo, star fruit, and grapefruit‐like products 14 days prior to and during the study. Participants with a positive breath test for Helicobacter pylori were excluded from the pantoprazole study.
(§1) Participants were confined to the study center on days 1 through 16. On day 1, participants received an oral dose of ripretinib 50 mg under fasting conditions (Figure 1C). On days 8 through 13, participants received pantoprazole 40 mg once daily. On day 14, participants received pantoprazole 40 mg once daily and ripretinib 50 mg simultaneously under fasting conditions.
Ripretinib and its active metabolite DP‐5439 plasma concentrations were measured using a validated high‐performance liquid chromatography (HPLC) with tandem mass spectrometry (LC‐MS/MS) assay with a lower limit of quantification (LLOQ) of 2.00 ng/mL for both analytes. In this method, the analytes (ripretinib and DP‐5439) and the internal standards (ISs; DCC‐2618‐d5 and DP‐5439‐d5) were released from human plasma samples by protein precipitation. The supernatants were chromatographed using reversed‐phase HPLC with a Betasil® C8 analytical column with deionized water (0.1% formic acid) and 40/60 acetonitrile/acetone (0.1% formic acid) as the mobile phase. Mass spectrometric detection was performed on a triple quadrupole tandem mass spectrometer API 5000 or API 5500 (Applied Biosystems/MDS Sciex, Toronto, Canada) equipped with a turbo ion spray source operated in the positive ionization mode. The source parameters were collision energy 40 eV, collision gas 6 psi, Nebulizer Gas 1, Turbo IonSpray Gas 2, and curtain gas 35 psi. Quantification was obtained by using multiple reaction monitoring mode of the transitions of mass to charge ratio [m/z] 510.3 →417 for DCC‐2618 (ripretinib), m/z 496.2 →403 for DP‐5439, m/z 515.3 →417 for DCC‐2618‐d5, and m/z 501.2 →403 for DP‐5439‐d5.
Plasma concentration–time data were analyzed using noncompartmental methods using Phoenix® WinNonlin® v7.0 (Certara USA Inc., Princeton, New Jersey). Derived PK parameters included area under the concentration–time curve from time 0 to time t (AUC0–t) and area under the concentration–time curve from 0 to infinity (AUC0–∞), maximum observed concentration (Cmax), time of maximum observed concentration (tmax), elimination half‐life (t1/2), apparent systemic clearance, and for DP‐5439, metabolite to parent ratio for AUC0–t, AUC0–∞, and Cmax.
The PK population included all participants who received ≥1 dose ripretinib and had ≥1 nonmissing PK concentration in plasma reported for ripretinib or DP‐5439. The PK evaluable set included all participants in the PK population who had ripretinib PK parameters on both ripretinib dosing days, bioanalytical results for ≥75% of planned analyses, no missed ripretinib doses and ≤2 missed perpetrator (itraconazole, pantoprazole, or rifampin) doses before the second dosing day of ripretinib, and no emesis within 8 hours of ripretinib administration. […]

[2] = Safety assessment (TEAEs), pantoprazole study; assay type: in vivo, human
Description: as §1
Relationship to study drug was assessed by the investigator.
Safety data were summarized as n (%).

CYP2D6 = molecular target: T1, CYP2D6 (Homo sapiens, UniProt P10635); assay: Incubation with recombinant human CYPs, substrate disappearance; assay type: in vitro ADME; conditions: ripretinib 0.1 or 1 μM, data on file
T1 construct: with human liver microsomes (0.5 mg protein/mL) for 30 minutes; from tissue; host or cells: human liver microsomes
T1 sequence (P10635 whole entry): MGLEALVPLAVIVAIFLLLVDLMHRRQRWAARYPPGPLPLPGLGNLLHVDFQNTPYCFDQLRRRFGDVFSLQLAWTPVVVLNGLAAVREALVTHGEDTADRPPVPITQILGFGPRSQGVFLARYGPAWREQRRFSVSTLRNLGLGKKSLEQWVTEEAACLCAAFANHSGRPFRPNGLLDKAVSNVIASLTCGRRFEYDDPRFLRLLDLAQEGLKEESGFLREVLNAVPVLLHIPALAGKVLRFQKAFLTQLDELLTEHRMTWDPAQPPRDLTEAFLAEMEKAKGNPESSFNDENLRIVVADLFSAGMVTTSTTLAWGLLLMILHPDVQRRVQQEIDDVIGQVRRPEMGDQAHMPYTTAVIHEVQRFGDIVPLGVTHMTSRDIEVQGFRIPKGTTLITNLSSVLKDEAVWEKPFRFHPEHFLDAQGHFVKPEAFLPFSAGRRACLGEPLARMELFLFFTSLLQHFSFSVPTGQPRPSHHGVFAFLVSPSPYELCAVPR
Description: (§2) In vitro studies with recombinant human cytochrome P450 isoforms (CYPs) and human liver microsomes (with chemical inhibitors) indicate that CYP3A4/5 plays a major role in the metabolism of ripretinib (data on file). When incubated with a panel of recombinant human CYPs, ripretinib (0.1 or 1 μM) disappeared in the presence of CYP3A4 (87.8%–100%), CYP2D6 (97.7%–100%), CYP2C8 (71.2% and 18.9%, respectively), and CYP2C19 (15.7% and 6.7%, respectively).

CYP2C19 = CYP2C19 (Homo sapiens, UniProt P33261); assay: as above; assay type: in vitro ADME; conditions: data on file
CYP2C19, sequence (P33261 whole entry): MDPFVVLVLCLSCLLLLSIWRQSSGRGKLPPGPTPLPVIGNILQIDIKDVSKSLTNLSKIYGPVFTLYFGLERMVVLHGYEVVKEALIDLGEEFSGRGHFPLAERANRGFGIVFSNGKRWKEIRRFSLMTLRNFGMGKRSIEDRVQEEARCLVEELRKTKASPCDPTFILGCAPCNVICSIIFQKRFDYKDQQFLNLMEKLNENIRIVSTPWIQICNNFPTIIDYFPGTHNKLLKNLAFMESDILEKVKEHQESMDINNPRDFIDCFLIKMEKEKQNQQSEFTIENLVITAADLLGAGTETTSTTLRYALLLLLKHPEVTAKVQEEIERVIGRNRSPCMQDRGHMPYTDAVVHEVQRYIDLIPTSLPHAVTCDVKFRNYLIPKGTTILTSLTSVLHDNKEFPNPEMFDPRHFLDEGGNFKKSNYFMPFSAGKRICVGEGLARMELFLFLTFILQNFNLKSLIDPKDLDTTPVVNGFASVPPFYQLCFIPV
Description: as §2

CYP2B6 = molecular target: T2, CYP2B6 (Homo sapiens, UniProt P20813); assay: as above; assay type: in vitro ADME; conditions: ripretinib 0.1 or 1 μM, data on file
T2 sequence (P20813 1-491): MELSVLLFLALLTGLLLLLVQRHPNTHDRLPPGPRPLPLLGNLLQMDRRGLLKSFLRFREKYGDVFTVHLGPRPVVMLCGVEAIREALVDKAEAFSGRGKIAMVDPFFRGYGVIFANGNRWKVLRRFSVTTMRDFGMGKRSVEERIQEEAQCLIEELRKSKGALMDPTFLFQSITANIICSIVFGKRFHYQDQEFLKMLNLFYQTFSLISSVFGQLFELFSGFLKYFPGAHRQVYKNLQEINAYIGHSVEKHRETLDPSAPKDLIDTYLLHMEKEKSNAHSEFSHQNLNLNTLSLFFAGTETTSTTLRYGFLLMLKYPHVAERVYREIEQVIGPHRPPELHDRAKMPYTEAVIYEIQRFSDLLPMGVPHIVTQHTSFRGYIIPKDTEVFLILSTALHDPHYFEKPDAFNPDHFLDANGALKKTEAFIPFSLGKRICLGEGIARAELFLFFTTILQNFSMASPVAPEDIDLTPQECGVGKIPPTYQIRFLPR
Description: as §2

[3] = ripretinib 50 mg single oral dose + pantoprazole 40 mg QD, healthy participants (N = 23)
[4] = ripretinib 50 mg single oral dose alone, healthy participants (pantoprazole study, N = 23)
[5] = ripretinib 50 mg with pantoprazole 40 mg QD relative to ripretinib alone
[6] = ripretinib 50 mg with pantoprazole 40 mg QD relative to ripretinib alone, listed as ripretinib

## CCn1c(=O)c(-c2cc(NC(=O)Nc3ccccc3)c(F)cc2Br)cc2cnc(NC)cc21 [Ripretinib]
[1]; 50 mg, ripretinib 50 mg single oral dose alone, healthy participants (pantoprazole study, N = 23), read-out: AUC0–t, arithmetic mean (SD)
  AUC(0-t): 3870 ng·h/mL
[1]; 50 mg, ripretinib 50 mg single oral dose alone, healthy participants (pantoprazole study, N = 23), read-out: AUC0–t, geometric mean (CV%)
  AUC(0-t): 3610 ng·h/mL
[1]; 50 mg, ripretinib 50 mg single oral dose alone, healthy participants (pantoprazole study, N = 23), read-out: AUC0–∞, arithmetic mean (SD)
  AUC(0-inf): 3950 ng·h/mL
[1]; 50 mg, ripretinib 50 mg single oral dose alone, healthy participants (pantoprazole study, N = 23), read-out: AUC0–∞, geometric mean (CV%)
  AUC(0-inf): 3690 ng·h/mL
[1]; 50 mg, ripretinib 50 mg single oral dose alone, healthy participants (pantoprazole study, N = 23), read-out: Cmax, arithmetic mean (SD)
  Cmax: 301 ng/mL
[1]; 50 mg, ripretinib 50 mg single oral dose alone, healthy participants (pantoprazole study, N = 23), read-out: Cmax, geometric mean (CV%)
  Cmax: 289 ng/mL
[1]; 50 mg, ripretinib 50 mg single oral dose alone, healthy participants (pantoprazole study, N = 23), read-out: t1/2, arithmetic mean (SD) (converted)
  half-life: 14 h
[1]; 50 mg, ripretinib 50 mg single oral dose alone, healthy participants (pantoprazole study, N = 23), read-out: t1/2, geometric mean (CV%) (converted)
  half-life: 13 h
[1]; ripretinib 50 mg single oral dose + pantoprazole 40 mg QD, healthy participants (N = 23), read-out: AUC0–t, arithmetic mean (SD)
  AUC(0-t): 4220 ng·h/mL
[1]; ripretinib 50 mg single oral dose + pantoprazole 40 mg QD, healthy participants (N = 23), read-out: AUC0–t, geometric mean (CV%)
  AUC(0-t): 3940 ng·h/mL
[1]; ripretinib 50 mg single oral dose + pantoprazole 40 mg QD, healthy participants (N = 23), read-out: AUC0–∞, arithmetic mean (SD)
  AUC(0-inf): 4310 ng·h/mL
[1]; ripretinib 50 mg single oral dose + pantoprazole 40 mg QD, healthy participants (N = 23), read-out: AUC0–∞, geometric mean (CV%)
  AUC(0-inf): 4030 ng·h/mL
[1]; ripretinib 50 mg single oral dose + pantoprazole 40 mg QD, healthy participants (N = 23), read-out: Cmax, arithmetic mean (SD)
  Cmax: 319 ng/mL
[1]; ripretinib 50 mg single oral dose + pantoprazole 40 mg QD, healthy participants (N = 23), read-out: Cmax, geometric mean (CV%)
  Cmax: 298 ng/mL
[1]; ripretinib 50 mg single oral dose + pantoprazole 40 mg QD, healthy participants (N = 23), read-out: t1/2, arithmetic mean (SD) (converted)
  half-life: 14 h
[1]; ripretinib 50 mg single oral dose + pantoprazole 40 mg QD, healthy participants (N = 23), read-out: t1/2, geometric mean (CV%) (converted)
  half-life: 14 h
[1]; [3]
  Tmax: 4 h
  CL/F, arithmetic mean (SD): 13 (5) L/h
  CL/F, geometric mean (CV%): 12 (38) L/h
[1]; [4]
  Tmax: 4 h
  CL/F, arithmetic mean (SD): 14 (5) L/h
  CL/F, geometric mean (CV%): 14 (38) L/h
[1]; ripretinib 50 mg + pantoprazole 40 mg QD
  Effect of pantoprazole on exposure / pharmacokinetics: no effect
[1]; ripretinib 50 mg alone (pantoprazole study)
  Time postdose that mean plasma concentration remained above the LLOQ: < 96 h
[1]; [5]
  Geometric LS mean ratio of AUC0–t: 109%
  Geometric LS mean ratio of AUC0–∞ (90% CI): 109 (98–122) %
  Geometric LS mean ratio of Cmax (90% CI): 103 (91–117) %
[1]; [6]
  Geometric LS mean ratio of AUC0–∞ (90% CI): 109%
  Geometric LS mean ratio of Cmax (90% CI): 103%
[1]; ripretinib 50 mg with pantoprazole
  Time postdose that mean plasma concentration remained above the LLOQ: < 96 h
[2]; human, in vivo, 28 days
  Number of TEAEs attributed to study drug: 42
  Participants with TEAEs attributed to study drug per the investigator: 19 (76%) n (%)
  Total number of TEAEs: 63
[2]; pantoprazole study, N = 25
  Deaths and serious AEs: No deaths occurred and no participants experienced SAEs
CYP2D6
  Substrate disappearance: 97.7%–100%
CYP2C19; ripretinib 0.1 μM
  Substrate disappearance: 15.7%
CYP2C19; ripretinib 1 μM
  Substrate disappearance: 6.7%
CYP2B6
  Substrate disappearance: less than 7%
